According to publication PMC8568133, “Evaluation of bisphenylthiazoles as a promising class for combating multidrug-resistant fungal infections” (PLoS ONE, 2021):
In brackets after ≈: the same amount, converted by molar mass. Like-named read-outs stand apart in the source and are kept apart here.

What was measured:
[1] = test system: Lactobacillus crispatus HM-370; assay: Broth microdilution MIC against normal human microbiota; assay type: cell-based; conditions: HM370; Lactobacillus crispatus HM-370; read-out: MIC
Procedure, shortened: (§1)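 Inoculum of about 5 x 10^5 CFU/mL in MRS broth, with compounds serially diluted in triplicate. MICs read after 48 hours at 37 °C; three independent repeats.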

[2] = test system: Lactobacillus gasseri HM-400; assay: as above; assay type: cell-based; conditions: HM400; Lactobacillus gasseri HM-400; read-out: MIC
Procedure, shortened: as §1

[3] = test system: Lactobacillus casei ATCC-334; assay: as above; assay type: cell-based; conditions: Lacticaseibacillus casei, ATCC334; Lactobacillus casei ATCC-334; read-out: MIC
Procedure, shortened: as §1

Candida glabrata = assay: Antifungal broth microdilution MIC (50% growth inhibition) and MFC; assay type: cell-based; conditions: Nakaseomyces glabratus; for MIC: read-out: MIC
Procedure, shortened: (§2)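 CLSI broth microdilution, clinical isolates, 128–0.06 μg/mL serial dilutions, triplicates. MFC: no-growth wells plated on YPD agar, 37 °C 24 h, 99.9% kill. Three independent repeats.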

Candida tropicalis = assay: as above; assay type: cell-based; conditions: Candida tropicalis, ATCC1369, C. tropicalis ATCC 1369
Procedure, shortened: as §2

Candida albicans = assay: as above; assay type: cell-based; conditions: Candida albicans; for MIC: read-out: MIC
Procedure, shortened: (§3)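 Clinical isolates were tested in triplicate by CLSI broth microdilution over 128–0.06 μg/mL. MIC was the lowest concentration giving 50% growth inhibition after 35 °C incubation, 24 h for Candida, 48 h for Cryptococcus. For MFC, wells without growth were plated on YPD agar, 37 °C for 24 hours; MFC meant 99.9% growth reduction.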

Candida krusei = assay: as above; assay type: cell-based; conditions: Pichia kudriavzevii; for MIC: read-out: MIC
Procedure, shortened: as §2

Candida auris [4] = assay: as above; assay type: cell-based; conditions: for MIC: read-out: MIC
Procedure, shortened: as §3

Candida auris [5] = assay: Checkerboard assay of compound 17 with standard antifungals; assay type: cell-based; conditions: for MIC: Candidozyma auris, checkerboard, agent alone
Description: To evaluate the interactions between bisphenylthiazoles and the standard antifungal agents (fluconazole, amphotericin B, 5-fluorocytosine and caspofungin) against 2 C. auris clinical isolates, a standard checkerboard assay was utilized as described in previous studies. The fractional inhibitory concentration index (FICI) was calculated for each interaction. Interactions where the FICI was ≤0.5 were categorized as synergistic (SYN). FICI values of >0.5–1.25 were categorized as additive (ADD). FICI values of >1.25–4 were categorized as indifferent, and FICI values of > 4 were categorized as antagonistic. The experiment was repeated three independent times.

[6] = test system: monkey kidney epithelial cells (Vero); assay: In vitro cytotoxicity, MTS assay
Description: (§4) Fig 2 In vitro cytotoxicity assay of bisphenylthiazole compounds 7, 16 and 17 (tested in triplicates at 32, 64 and 128 μg/mL) against: A) human colorectal cells (Caco-2), and B) monkey kidney epithelial cells (Vero) after 24-hours exposure time, using the MTS 3-(4,5-dimethylthiazol-2-yl)-5-(3-carboxymethoxyphenyl)-2-(4-sulfophenyl)-2H-tetrazolium) assay. The data represent the percentage of viable Caco-2 or Vero cells measured as the average absorbance relative to DMSO after exposure to the tested compounds. Dimethyl sulfoxide (DMSO) was used as a negative control. Error bars represent the standard deviation values.
(§5) To explore the tolerability of bisphenylthiazoles, their cytotoxicity profile was assessed in human colorectal adenocarcinoma (Caco-2) and monkey kidney epithelial cells (Vero) as described earlier. Briefly, compounds were incubated with the cells for 24 hours. Then, cells were incubated with MTS reagent for 3 hours before measuring the absorbance values (OD490). The experiment was repeated in two independent times.

[7] = test system: human colorectal cells (Caco-2); assay: In vitro cytotoxicity, MTS assay; conditions: human, 24 h
Description: as §4, §5

[8] = ATCC66032, C. glabrata ATCC 66032
[9] = ATCC10231, C. albicans ATCC 10231

For `Cc1nc(-c2ccc(-c3ccccc3)cc2)sc1-c1nnc(N[C@@H]2CCCC[C@@H]2N)o1` (relative stereo) [Compound 17, cis-N-{5-[2-((1,1’-Biphenyl)-4-yl)-4-methylthiazol-5-yl]-1,3,4-oxadiazol-2-yl}cyclo-hexane-1,2-diamine], which MIC [1] is on record?
Its MIC is > 128 µg/mL.

And the MIC [2]?
Its MIC is 128 µg/mL (≈ 297 µM).

And the MIC [3]?
Its MIC is 128 µg/mL (≈ 297 µM).

What about the melting point of the same compound?
Its melting point is 145 to 146 °C.

What about the MFC (Candida glabrata; [8]) of the same compound?
Its MFC is > 64 µg/mL.

What about the MIC (Candida glabrata; [8]) of the same compound?
Its MIC is 0.5 µg/mL (≈ 1.16 µM).

And the MFC (Candida glabrata; C. glabrata ATCC MYA-2950)?
Its MFC is > 64 µg/mL.

What about the MIC (Candida glabrata; C. glabrata ATCC MYA-2950) of the same compound?
The MIC was 0.5 µg/mL (≈ 1.16 µM).

What about the MFC (Candida tropicalis) of the same compound?
The MFC was > 64 µg/mL.

And the MIC (Candida tropicalis; read-out: MIC)?
The MIC was 4 µg/mL (≈ 9.27 µM).

What about the MFC (Candida albicans; [9]) of the same compound?
The MFC was > 64 µg/mL.

And the MIC (Candida albicans; [9])?
The MIC was 4 µg/mL (≈ 9.27 µM).

What about the MIC (Candida albicans; C. albicans NR-29448 (fluconazole-resistant)) of the same compound?
Its MIC is 2 µg/mL (≈ 4.63 µM).

What about the MIC (Candida albicans; C. albicans SS5314 (wild-type)) of the same compound?
The MIC was 1 µg/mL (≈ 2.32 µM).

And the MFC (Candida albicans; C. albicans NR-29448)?
The MFC was > 64 µg/mL.

What about the MIC (Candida krusei; ATCC34135, C. krusei ATCC 34135) of the same compound?
The MIC was 1 µg/mL (≈ 2.32 µM).

And the MFC (Candida krusei; C. krusei CAB 396420)?
Its MFC is > 64 µg/mL.

And the MIC (Candida krusei; C. krusei CAB 396420)?
Its MIC is 1 µg/mL (≈ 2.32 µM).

And the MFC (Candida auris [4]; Candida auris 390)?
The MFC was >64 µg/mL.

What about the MIC (Candida auris [4]; Candidozyma auris, C. auris 381) of the same compound?
The MIC was 1 µg/mL (≈ 2.32 µM).

What about the MIC (Candida auris [4]; Candidozyma auris, C. auris 382) of the same compound?
The MIC was 2 µg/mL (≈ 4.63 µM).

What about the MIC (Candida auris [4]; Candidozyma auris, C. auris 383) of the same compound?
The MIC was 1 µg/mL (≈ 2.32 µM).

And the MIC (Candida auris [4]; Candidozyma auris, C. auris 384)?
Its MIC is 1 µg/mL (≈ 2.32 µM).

What about the MIC (Candida auris [4]; Candidozyma auris, C. auris 385) of the same compound?
The MIC was 2 µg/mL (≈ 4.63 µM).

And the MIC (Candida auris [4]; Candidozyma auris, C. auris 386)?
Its MIC is 1 µg/mL (≈ 2.32 µM).

What about the MIC (Candida auris [4]; Candidozyma auris, C. auris 387) of the same compound?
Its MIC is 2 µg/mL (≈ 4.63 µM).

What about the MIC (Candida auris [4]; Candidozyma auris, C. auris 388) of the same compound?
The MIC was 1 µg/mL (≈ 2.32 µM).

What about the MIC (Candida auris [4]; Candidozyma auris, C. auris 389) of the same compound?
The MIC was 2 µg/mL (≈ 4.63 µM).

What about the MIC (Candida auris [4]; Candidozyma auris, C. auris 390) of the same compound?
The MIC was 1 µg/mL (≈ 2.32 µM).

And the MFC (Candida auris [4]; Candidozyma auris, Candida auris 389, read-out: MFC)?
The MFC was > 64 µg/mL.

And the “MIC Combined, 17” value (Candida auris [5]; Candida auris 381, compound 17 in combination with 5-Fluorocytosine)?
Its value is 0.25 µg/mL.

And the “MIC Combined, 17” value (Candida auris [5]; Candida auris 381, compound 17 in combination with Amphotericin B)?
The value was 0.25 µg/mL.

What about the “MIC Combined, 17” value (Candida auris [5]; Candida auris 381, compound 17 in combination with Caspofungin) of the same compound?
The value was 0.25 µg/mL.

What about the “MIC Combined, 17” value (Candida auris [5]; Candida auris 381, compound 17 in combination with Fluconazole) of the same compound?
Its value is 0.25 µg/mL.

What about the “MIC Combined, 17” value (Candida auris [5]; Candida auris 385, compound 17 in combination with 5-Fluorocytosine) of the same compound?
The value was 0.25 µg/mL.

And the “MIC Combined, 17” value (Candida auris [5]; Candida auris 385, compound 17 in combination with Amphotericin B)?
The value was 0.25 µg/mL.

And the “MIC Combined, 17” value (Candida auris [5]; Candida auris 385, compound 17 in combination with Caspofungin)?
Its value is 0.25 µg/mL.

What about the “MIC Combined, 17” value (Candida auris [5]; Candida auris 385, compound 17 in combination with Fluconazole) of the same compound?
Its value is 2 µg/mL.

What about the MIC (Candida auris [5]; Candida auris 381 (azole-sensitive)) of the same compound?
Its MIC is 1 µg/mL.

What about the MIC (Candida auris [5]; Candida auris 385 (azole-resistant)) of the same compound?
Its MIC is 2 µg/mL.

And the “relationship when combined with antifungals” value (Candida auris [5]; combined with either fluconazole, 5-fluorocytosine or caspofungin, two tested C. auris isolates)?
The value was “additive”.

And the “concentration up to which non-toxic” value ([6]; Vero, 24 h exposure, MTS)?
Its value is ≤ 64 µg/mL.

And the “times more tolerable than amphotericin B” value ([6]; relative to amphotericin B)?
Its value is 16 times.

What about the “concentration up to which non-toxic” value [7] of the same compound?
The value was ≤ 64 µg/mL.
